Experimental data: PubChem BioAssay AID1189 (EPA DSSTox, 2008)
Activity calls are given as the source filed them.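 The calls were made as follows: active = a tumor-causing dose value with its tumor site reported for any sex and species group of a rodent or other animal cancer study; inconclusive = only studies judged inadequate by the national testing program; inactive = tested in at least one study, none positive.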

Assay: DSSTox (CPDBAS) Carcinogenic Potency Database Summary SingleCellCall Results
Details: animal chronic carcinogenicity bioassays, CPDB summary call
Method in brief: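 Categorical carcinogenicity call compiled from published chronic rodent and other animal cancer bioassays; based on the most positive result across experiments for each sex-species, assigned on minimal evidence for or against activity.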

SMILES | outcome
O[C@H]([C@H](O)[C@@H](O)CBr)[C@H](O)CBr | active; inactive
c1ccc2sc(SN3CCOCC3)nc2c1 | inactive
CC(C)(C)c1cc(C(C)(C)C)c(O)c(C(C)(C)C)c1 | inactive
c1ccc2cc(Nc3ccc(Nc4ccc5ccccc5c4)cc3)ccc2c1 | inactive; active
CCOc1ccc(NC(=O)CC(C)O)cc1 (centres undefined) | active
Oc1cccc(O)c1 | inactive
O=C(O)Cc1c[nH]c2ccccc12 | inactive
[Cd+2].[Cl-].[Cl-] | active; inactive
[O]=[Mo](=[O])=[O] | active
CCCCCCCCCCCCCCCC(=O)CC(=O)CCCCCCCCCCCCCCC | active
CC(CN1CC(=O)NC(=O)C1)N1CC(=O)NC(=O)C1 (centres undefined) | active
CCCC(Cl)CCC(Cl)CCC(Cl)CCC(Cl)CCC(Cl)CCC(Cl)CCC(C)Cl (centres undefined) | active
CCN(C=O)CC | inactive; active
CC(=O)OCC(=O)[C@@]12N=C(C)O[C@@H]1C[C@H]1[C@@H]3CCC4=CC(=O)C=C[C@]4(C)[C@H]3[C@@H](O)C[C@@]12C | active
Clc1ccccc1Cl | inactive
O=P(OCCCl)(OCCCl)OCCCl | active
CCCC[C@H](C)[C@@H](OC(=O)C[C@H](CC(=O)O)C(=O)O)[C@@H](C[C@H](C)C[C@@H](O)CCCC[C@@H](O)C[C@H](O)[C@H](C)N)OC(=O)C[C@H](CC(=O)O)C(=O)O | active; inactive
CC1=NN(c2ccccc2)C(=O)C1 | inactive
CC[C@H]1OC(=O)C[C@@H](O)[C@H](C)[C@@H](O[C@@H]2O[C@H](C)[C@@H](O[C@H]3C[C@@](C)(O)[C@@H](O)[C@H](C)O3)[C@H](N(C)C)[C@H]2O)[C@@H](CC=O)C[C@@H](C)C(=O)/C=C/C(C)=C/C1CO[C@@H]1O[C@H](C)[C@@H](O)[C@@H](OC)[C@H]1OC (some centres undefined) | inactive
